Source: patent publication US12318361B2, “Methods for treating cardiovascular diseases” (Olatec Therapeutics LLC, priority 2017, dated 2025)

Tested on: male CD-1 mice, experimental AMI
Assay: Experimental mouse AMI model (30 min ischemia, 24 h reperfusion), dose response and delayed dosing, Example 9
Type: in vivo
Conditions: for Infarct size, Change (%) relative to saline group / Infarct size, mean: 24 h; for AWDT, mean / AWST, mean / LVEDD, mean / LVEF, mean / LVESD, mean / LVFS, mean / PWDT, mean / PWST, mean: echo at 24 h
Description: Objectives: To determine the efficacy of, (1) a single dose of OLT1177™ (6, 60 and 600 mg/kg) administered at the time of reperfusion (Part A) and, (2) a single dose of 60 mg/kg OLT1177™ administered 60, 120 or 180 minutes after reperfusion in an experimental mouse AMI model.
Methodology: Male CD-1 mice underwent transient surgical ligation of the left coronary artery for 30 minutes followed by reperfusion for 24 hours. A single dose of OLT1177™ (6, 60, or 600 mg/kg) or matching vehicle was administered intraperitoneally (IP) at time of reperfusion (N=5-9/group, Study Part A) or OLT1177™ (60 mg/kg) after a 60-, 120- or 180-minute delay (N=4-7/group, Study Part B). Echocardiography was performed to measure left ventricular (LV) fractional shortening (FS). Infarct size was measured at pathology by triphenyl-tetrazolium-chloride (TTC) and phthalo blue staining and expressed as a percentage of the myocardium at risk.
For the 60-mg/kg dose, OLT1177™ (13 mg/vial) was diluted in 0.65 ml of 0.9% of normal saline solution to reach a concentration of 20 mg/ml. For the 6 mg/kg dose, the 20 mg/ml dose was diluted 10 times (0.1 ml OLT1177™ […]+0.9 ml 0.9% normal saline) to reach a final concentration of 2 mg/ml. For the 600 mg/kg dose, each vial of OLT1177™ (13 mg/vial) was diluted with 0.1 ml of saline, to reach a final concentration of 130 mg/ml. The content of multiple vials was combined. Each respective tube was subjected to a vortex and heating at 37° C. until complete dissolution of the drug substance.
Male mice were dosed with OLT1177™ by the intraperitoneal route at dose levels of 6, 60, or 600 mg/kg (each approximately 33 g mouse received 100 μl of the dosing solution; 150 μl for the higher dose) after the reperfusion was confirmed (Study Part A). In Part B, 60 mg/kg OLT1177™ was injected (100 μl of the dosing solution per mouse) with a delay of 60, 120 or 180 minutes from the time of reperfusion.
Adult out-bred male CD1 mice (8-10 weeks of age) were supplied by Envigo (Indianapolis, IN). A single operator performed all surgeries. Experimental AMI was induced by transient coronary artery ligation for 30 minutes to induce ischemia of the anterior wall and the apex (visible as pallor) followed by reperfusion, and leading to an infarct involving approximately 15% of the left ventricle. Mice were deeply sedated with sodium pentobarbital (70 mg/kg), intubated using a 23 G catheter and placed in the right lateral decubitus. The mice were shaved and the skin was cleaned with povidone solution and isopropyl alcohol. The mice were then connected to a ventilator and a left thoracotomy was performed followed by pericardiectomy and ligation of the proximal left coronary artery. A 1-mm diameter polyethylene tube was inserted inside the ligature knot, secured and left in place to obstruct the coronary flow for 30 minutes. At the end of the ischemic time, the tube was removed and the coronary flow re-establishment was observed. At this time, OLT1177™ at a dose of 6, 60 or 600 mg/kg, or the normal saline (0.9% NaCl) used as vehicle (0.1 ml of total volume) was injected into the peritoneal cavity after the reperfusion was confirmed (Part A). After closure of the thoracic access, the mice were left to recover for 24 hours. Pain management was achieved using buprenorphine (Buprenorphine SR™ Lab, 0.5 mg/kg) injected subcutaneously. For Study Part B, groups of mice were injected with 60 mg/kg of OLT1177™ after 60, 120 or 180 minutes from the moment of reperfusion.
Before sacrifice (24 hours after reperfusion), the mice underwent transthoracic echocardiography under mild anesthesia with sodium pentobarbital (50 mg/kg). Echocardiography was performed with the Vevo770 Imaging System (VisualSonics Inc, Toronto, Ontario, Canada) and a 30 MHz probe. The heart was visualized in B-mode from the parasternal short axis and apical views. The left ventricular (LV) end-diastolic diameter (LVEDD) and LV end-systolic diameters (LVESD) at M-Mode were measured. […]

[1] = 6 mg/kg IP at time of reperfusion (Group 2)
[2] = 60 mg/kg IP administered at 60 minutes (Group 5)
[3] = 60 mg/kg IP administered at 120 minutes (Group 6)
[4] = 60 mg/kg IP at time of reperfusion (Group 3)
[5] = 60 mg/kg IP, Group 7 (N = 4), head prints Administered at 120 Minutes
[6] = 60 mg/kg IP, treatment delay of 60 or 120 minutes, p<0.01
[7] = 600 mg/kg IP at time of reperfusion (Group 4)
[8] = all doses (6, 60, 600 mg/kg) at reperfusion, 24 h after reperfusion, p<0.05

## CS(=O)(=O)CCC#N [OLT1177™, 3-methanesulfonyl-propionitrile]
[1]
  Infarct size, Change (%) relative to saline group: −36%
  AWDT, mean: 0.79 mm
  AWST, mean: 1.10 mm
  LVEDD, mean: 3.71 mm
  LVEF, mean: 61.4%
  LVESD, mean: 2.52 mm
  LVFS, mean: 32.2%
  PWDT, mean: 0.86 mm
  PWST, mean: 1.12 mm
6 mg/kg IP single dose at time of reperfusion (Group 2)
  Infarct size, mean: 9.9%
60 mg/kg IP administered 120 or 180 minutes after reperfusion
  infarct size (in words): not significantly altered
[2]
  AWDT, mean: 0.85 mm
  AWST, mean: 1.18 mm
  LVEDD, mean: 4.00 mm
  LVEF, mean: 65.3%
  LVESD, mean: 2.59 mm
  LVFS, mean: 35.5%
  PWDT, mean: 0.89 mm
  PWST, mean: 1.33 mm
60 mg/kg IP administered at 60 minutes after reperfusion (Group 5)
  Infarct size, mean: 4.4%
[3]
  AWDT, mean: 0.83 mm
  AWST, mean: 1.20 mm
  LVEDD, mean: 4.07 mm
  LVEF, mean: 63.6%
  LVESD, mean: 2.68 mm
  LVFS, mean: 34.1%
  PWDT, mean: 0.87 mm
  PWST, mean: 1.26 mm
60 mg/kg IP administered at 120 minutes after reperfusion (Group 6)
  Infarct size, mean: 11.1%
60 mg/kg IP administered at 180 minutes after reperfusion (Group 7)
  Infarct size, mean: 15.4%
60 mg/kg IP after a 60 minutes delay after reperfusion
  reducing infarct size and preserving LV function, compared with treatment given with no delay: equally effective
[4]
  Infarct size, Change (%) relative to saline group: −67%
  AWDT, mean: 0.82 mm
  AWST, mean: 1.25 mm
  LVEDD, mean: 4.25 mm
  LVEF, mean: 59.3%
  LVESD, mean: 2.93 mm
  LVFS, mean: 31.0%
  PWDT, mean: 0.86 mm
  PWST, mean: 1.24 mm
60 mg/kg IP single dose at time of reperfusion (Group 3)
  Infarct size, mean: 5.1%
[5]
  AWDT, mean: 0.95 mm
  AWST, mean: 1.22 mm
  LVEDD, mean: 3.88 mm
  LVEF, mean: 51.5%
  LVESD, mean: 2.87 mm
  LVFS, mean: 26.0%
  PWDT, mean: 0.94 mm
  PWST, mean: 1.31 mm
[6]
  LV ejection fraction in comparison to vehicle-treated mice (in words): significantly improved
  LV fractional shortening in comparison to vehicle-treated mice (in words): significantly improved
60 mg/kg IP, treatment delay of 180 minutes
  drop in fractional shortening (in words): failed to prevent the drop
[7]
  Infarct size, Change (%) relative to saline group: −61%
  AWDT, mean: 0.77 mm
  AWST, mean: 1.06 mm
  LVEDD, mean: 3.76 mm
  LVEF, mean: 61.6%
  LVESD, mean: 2.54 mm
  LVFS, mean: 33.0%
  PWDT, mean: 0.83 mm
  PWST, mean: 1.14 mm
600 mg/kg IP single dose at time of reperfusion (Group 4)
  Infarct size, mean: 6.0%
6, 60 and 600 mg/kg single IP injection at time of reperfusion, p<0.001
  infarct size vs vehicle (in words): significant reduction
[8]
  LV ejection fraction relative to vehicle control (in words): significantly higher
  LV fractional shortening relative to vehicle control (in words): significantly higher
High dose 600 mg/kg IP at time of reperfusion
  decrease in mean infarct size compared to the vehicle control: more than 60%
Low dose 6 mg/kg IP at time of reperfusion
  decrease in infarct size compared to the vehicle control: 36%
Mid dose 60 mg/kg IP at time of reperfusion
  decrease in mean infarct size compared to the vehicle control: more than 60%
